Measurements from patent publication US10577362B2, “Substituted 2, 4-diamino-quinoline derivatives for use in the treatment of proliferative diseases” (GENOSCIENCE PHARMA, priority 2016, dated 2020).

Columns and labels:
[1] = tested on: MOLM-14 (acute myeloid leukemia) cell line; test: CellTiter-Glo luminescent cell viability assay, MOLM-14; type: cell-based, human; conditions: Homo sapiens; for viability at 4 µM: MOLM-14, compound at 4 μM; for viability at 4 µM / viability at 10 µM: 72 h; for viability at 10 µM: MOLM-14, compound at 10 μM; for EC50: MOLM-14 cell line, 72 h incubation, CellTiter-Glo, read-out: EC50, growth inhibition of MOLM-14
Outline: (§1)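 Adherent lines plated overnight, MOLM-14 (suspension) 1 h before dosing, in medium with 10% FBS at 37 °C, 5% CO2. Compounds added at varying concentrations for 72 h; CellTiter-Glo luminescence read, EC50 as dose reducing signal to 50% of diluent-treated cells, at least duplicate points.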

[2] = tested on: HepG2 (hepatocellular carcinoma) cell line; test: CellTiter-Glo luminescent cell viability assay, HepG2; type: cell-based, human; conditions: Homo sapiens; for viability at 4 µM / viability at 10 µM: HepG2, HepG, 72 h; for viability at 4 µM: compound at 4 μM; for viability at 10 µM: compound at 10 μM; for EC50: HepG2 cell line, 72 h incubation, CellTiter-Glo, read-out: EC50, growth inhibition of HepG2
Outline: as §1

[3] = tested on: 786-O (renal adenocarcinoma) cell line; test: CellTiter-Glo luminescent cell viability assay, 786-O; type: cell-based, human; conditions: Homo sapiens, 786-0; for EC50: 786-O cell line, 72 h incubation, CellTiter-Glo, read-out: EC50, growth inhibition of 786-O; for viability at 4 µM / viability at 10 µM: 786-O, 72 h; for viability at 4 µM: compound at 4 μM; for viability at 10 µM: compound at 10 μM
Outline: (§2)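 Adherent cells grow overnight, or suspension cells are seeded 1 h ahead; compound dilutions are then added and plates incubated 72 h at 37 °C. After 30 min at room temperature, CellTiter-Glo reagent is added and luminescence recorded. EC50 derives from signal relative to diluent control.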

[4] = tested on: PANC-1 (prancreatic carcinoma) cell line; test: CellTiter-Glo luminescent cell viability assay, PANC-1; type: cell-based; conditions: Homo sapiens; for viability at 4 µM: PANC-1, 4 μM; for viability at 4 µM / viability at 10 µM: 72 h, % of signal of diluent-treated cultures; for viability at 10 µM: PANC-1, 10 μM; for EC50: PANC-1 cell line, 72 h incubation, CellTiter-Glo, read-out: EC50 (growth inhibition assay of PANC-1 cell line)
Outline: as §1

[5] = tested on: Huh7 (hepatocellular carcinoma) cell line; test: CellTiter-Glo luminescent cell viability assay, Huh7; type: cell-based, human; conditions: Homo sapiens, Huh-7; for viability at 4 µM: Huh7, compound at 4 μM; for viability at 4 µM / viability at 10 µM: 72 h; for viability at 10 µM: Huh7, compound at 10 μM; for EC50: Huh7 cell line, 72 h incubation, CellTiter-Glo, read-out: EC50, growth inhibition of Huh7
Outline: as §1

[6] = tested on: A375 (malignant melanoma) cell line; test: CellTiter-Glo luminescent cell viability assay, A375; type: cell-based, human; conditions: Homo sapiens, A-375; for viability at 4 µM: A375, compound at 4 μM; for viability at 4 µM / viability at 10 µM: 72 h; for viability at 10 µM: A375, compound at 10 μM; for EC50: A375 cell line, 72 h incubation, CellTiter-Glo, read-out: EC50, growth inhibition of A375
Outline: as §2

[7] = tested on: HCT-116 (colorectal carcinoma) cell line; test: CellTiter-Glo luminescent cell viability assay, HCT-116; type: cell-based, human; conditions: Homo sapiens; for viability at 4 µM: HCT-116, compound at 4 μM; for viability at 4 µM / viability at 10 µM: 72 h; for viability at 10 µM: HCT-116, compound at 10 μM; for EC50: HCT-116 cell line, 72 h incubation, CellTiter-Glo, read-out: EC50, growth inhibition of HCT-116
Outline: as §2

EC50 [1]	EC50 [2]	EC50 [3]	EC50 [4]	EC50 [5]	EC50 [6]	Compound	viability at 4 µM [1]	viability at 10 µM [1]	viability at 4 µM [2]	viability at 10 µM [2]	viability at 4 µM [3]	viability at 10 µM [3]	viability at 4 µM [4]	viability at 10 µM [4]	viability at 4 µM [5]	viability at 10 µM [5]	viability at 4 µM [6]	viability at 10 µM [6]	viability at 4 µM [7]	viability at 10 µM [7]	further results
5 to 10 µM	0.5 to 5 µM	0.5 to 5 µM	5 to 10 µM	0.5 to 5 µM	0.5 to 5 µM	CNC1CCN(c2c(C#N)c(NCc3ccc(Cl)cc3)nc3ccccc23)C1 (stereo not shown) [Compound 3192CN, 2-(4-chloro-benzylamino)-3-cyano-4-[3-(methylamino)pyrrolidin-1-y]quinoline]	0.6%	0.3%	59.5%	0.4%	0.4%	0.2%	77.1%	1.5%	78%	0.4%	104%	0.4%	57.3%	0.2%	EC50 [7]: 0.5 to 5 µM
–	–	–	–	–	–	N#Cc1c(NCc2ccc(Cl)cc2)nc2ccccc2c1N1CCC(NC2CCOCC2)C1 (stereo not shown) [Compound 136CN, 2-(4-chloro-benzylamino)-3-cyano-4-{3-[(tetrahydro-2H-pyran-4-yl)-amino]pyrroli-din-1-yl}quinoline]	95.7%	32%	88.6%	44.1%	75.7%	21.8%	91.7%	63.6%	87.6%	50.5%	110%	17.4%	73.3%	17.4%	–
–	–	–	–	–	–	CCN(CC)C1CCN(c2c(C#N)c(NCc3ccc(Cl)cc3)nc3ccccc23)C1 (stereo not shown) [Compound 126CN, 2-(4-chloro-benzylamino)-3-cyano-4-[3-(diethylamino)pyrrolidin-1-yl]quinoline]	105%	99.6%	104%	102%	91.2%	87.6%	106%	103%	98.9%	96.1%	92.5%	89.9%	97%	93.3%	–
5 to 10 µM	5 to 10 µM	0.5 to 5 µM	5 to 10 µM	0.5 to 5 µM	0.5 to 5 µM	CN1CCN(C2CCCN(c3c(C#N)c(NCc4ccc(Cl)cc4)nc4ccccc34)C2)CC1 (stereo not shown) [Compound 3168CN, 2-(4-chlorobenzylamino)-3-cyano-4-[3-(4-methylpiperazin-1-yl)piperidin-1-yl]quinoline]	105%	0.8%	87.8%	0.6%	75.4%	0.6%	100%	22.3%	80.1%	0.7%	61%	0.8%	40.7%	0.5%	EC50 [7]: 0.5 to 5 µM
5 to 10 µM	0.5 to 5 µM	5 to 10 µM	5 to 10 µM	0.5 to 5 µM	0.5 to 5 µM	CC(C)(C)NC1CCN(c2c(C#N)c(Nc3ccccc3)nc3ccccc23)CC1 [Compound 3246CN, 2-(phenylamino)-3-cyano-4-[4-(tert-butylamino)piperidin-1-yl]quinoline]	91.9%	3.1%	53.2%	0.2%	59%	0.2%	88.2%	38.8%	67.7%	0.6%	66.2%	0.2%	3%	0.1%	EC50 [7]: 0.5 to 5 µM
–	–	–	–	–	–	Cc1nc(Nc2nc3ccccc3c(N3CCC(NC(C)(C)C)CC3)c2C#N)n(C)n1 [Compound 3274CN, 2-[(1,3-dimethyl-1H-1,2,4-triazol-5-yl)amino]-3-cyano-4-[4-(tert-butylamino)piperidin-1-yl]quinoline]	91.3%	78.2%	63.4%	55.2%	106%	83.4%	96.7%	89.9%	96.2%	75%	84.7%	69.2%	73.3%	49.5%	–
–	–	–	–	–	–	CC(C)(C)NC1CCN(c2c(C#N)c(Nc3ccncn3)nc3ccccc23)CC1 [Compound 3282CN, 2-(pyrimidin-4-ylamino)-3-cyano-4-[4-(tert-butylamino)piperidin-1-yl]quinoline]	93.3%	63.5%	58.9%	40.3%	102%	76.9%	102%	77.3%	97.9%	75.4%	88.6%	64.1%	73.7%	39.8%	–
0.5 to 5 µM	5 to 10 µM	0.5 to 5 µM	5 to 10 µM	5 to 10 µM	0.5 to 5 µM	N#Cc1c(NCc2ccc(Cl)cc2)nc2ccccc2c1N1CCC(N2CCCC2)CC1 [Compound 200CN, 2-(4-chlorobenzylamino)-3-cyano-4-[4-(pyrrolidin-1-yl)piperidin-1-yl]quinoline]	92.7%	0.4%	90.8%	0.9%	74.8%	2.2%	98.8%	60.8%	83.1%	0.7%	65.9%	0.4%	78.1%	0.5%	EC50 [7]: 0.5 to 5 µM
0.5 to 5 µM	0.5 to 5 µM	0.5 to 5 µM	5 to 10 µM	0.5 to 5 µM	0.5 to 5 µM	CC(C)NC1CCN(c2c(C#N)c(NCc3ccc(Cl)cc3)nc3ccccc23)CC1 [Compound 3174CN, 2-(4-chlorobenzylamino)-3-cyano-4-[4-(iso-propylamino)piperidin-1-yl]quinoline]	24.4%	0.3%	0.5%	0.2%	3.6%	0.2%	84.8%	0.6%	62.9%	0.3%	0.3%	0.2%	0.3%	0.1%	EC50 [7]: 0.5 to 5 µM
–	–	–	–	–	–	N#Cc1c(NCc2ccc(Cl)cc2)nc2ccccc2c1N1CCC(Oc2ccccc2)CC1 [Compound 2940CN, 2-(4-chlorobenzylamino)-3-cyano-4-(4-phenoxypiperidin-1-yl)quinoline]	102%	89.1%	89.7%	79.4%	97.1%	91.7%	103%	102%	97.3%	88.9%	104%	98.3%	92.9%	82.9%	–
